The series concerns SNCA mRNA. Description: ASO-Bind-Map in cells (gapmer ASO, RT-qPCR). The class given is cell-based, human. The settings on record: 200 nM, SH-SY5Y cells, RT-qPCR. Here is the method: Mapping Synucleozid's binding site in cells with ASO-Bind-Map. SH-SY5Y cells were treated with vehicle (DMSO) or Synucleozid at 60% confluency overnight and were then transfected with a gapmer ASO (200 nM) with Lipofectamine RNAiMAX (Invitrogen) according to the manufacturer's instructions. Mock samples were generated by treating cells with transfection reagent lacking oligonucleotide. RNA extraction, cDNA synthesis and RT-qPCR were performed as described above after 48 h. Primers for SNCA mRNA in this experiment cover sequences upstream and downstream of the IRE; forward primer: [NT]; reverse primer [NT].

As to “5′-CACTCCCAGT-3′ (2'-MOE phosphorothioate gapmer, further chemistry not given here) [ASO(1-10), reference compound]”, the “reduction of SNCA mRNA levels by gapmer” value is about 50%.

Consider “5′-TCCTTTACACC-3′ (2'-MOE phosphorothioate gapmer, further chemistry not given here) [ASO(29-39), reference compound]”, for which the “reduction of SNCA mRNA levels by gapmer” value is on record as about 50%.

For the origin of these results see patent US20230054976A1, “METHODS FOR INHIBITION OF ALPHA-SYNUCLEIN mRNA USING SMALL MOLECULES” (The Scripps Research Institute, priority 2019, published 2023).
